Assay results as given in US10323022B2, “Pyrrolidinyl urea, pyrrolidinyl thiourea and pyrrolidinyl guanidine compounds as TrkA kinase inhibitors” (Array BioPharma Inc., priority 2011, dated 2019).

What follows are molecules tested against TrkA (Homo sapiens (Human), UniProt P04629) (assay: TrkA Omnia Assay). Details: averaged IC50; 20 nM enzyme, 500 μM ATP, 10 μM peptide substrate.
Format: biochemical
How it was run: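 Recombinant TrkA (20 nM) preincubated 10 min at ambient temperature with compound, then Omnia Tyr Peptide #4 (10 μM) and ATP (500 μM) added in 25 mM MOPS pH 7.5, 5 mM MgCl2, 0.005% Triton X-100. Fluorescence (ex 360/em 485 nm) followed continuously for 70 min; IC50 from initial rates by 4- or 5-parameter logistic fit.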

Chain of TrkA (P04629 33-796): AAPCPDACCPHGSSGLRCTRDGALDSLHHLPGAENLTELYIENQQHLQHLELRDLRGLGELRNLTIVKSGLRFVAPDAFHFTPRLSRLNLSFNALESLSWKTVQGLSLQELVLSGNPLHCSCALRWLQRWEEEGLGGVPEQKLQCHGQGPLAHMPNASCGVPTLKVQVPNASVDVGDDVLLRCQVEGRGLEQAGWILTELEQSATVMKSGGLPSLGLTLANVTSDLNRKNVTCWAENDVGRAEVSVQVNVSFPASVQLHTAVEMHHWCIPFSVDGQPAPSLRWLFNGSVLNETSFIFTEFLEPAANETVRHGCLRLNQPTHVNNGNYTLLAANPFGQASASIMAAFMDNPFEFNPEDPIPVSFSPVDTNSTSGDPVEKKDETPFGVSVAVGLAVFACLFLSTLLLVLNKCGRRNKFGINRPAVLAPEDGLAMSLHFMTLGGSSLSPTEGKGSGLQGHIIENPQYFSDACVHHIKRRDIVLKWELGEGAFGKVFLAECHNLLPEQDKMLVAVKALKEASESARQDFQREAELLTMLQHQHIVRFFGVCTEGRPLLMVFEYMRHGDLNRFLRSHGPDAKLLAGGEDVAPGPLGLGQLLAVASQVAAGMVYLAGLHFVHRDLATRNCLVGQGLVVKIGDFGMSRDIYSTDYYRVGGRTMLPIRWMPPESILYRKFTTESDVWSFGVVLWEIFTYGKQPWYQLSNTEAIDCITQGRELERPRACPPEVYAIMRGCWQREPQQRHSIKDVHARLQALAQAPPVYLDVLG

IC50 | Structure (SMILES)
< 100 nM | CCOc1nn(-c2ccccc2)c(NC(=O)N[C@@H]2CN(c3cn[nH]c3)C[C@H]2c2cc(F)cc(F)c2)c1C [Example 217, 1-((3S,4R)-4-(3,5-difluorophenyl)-1-(1H-pyrazol-4-yl)pyrrolidin-3-yl)-3-(3-ethoxy-4-methyl-1-phenyl-1H-pyrazol-5-yl)urea]
< 100 nM | CCOc1nn(-c2ccccc2)c(NC(=O)N[C@@H]2CN(c3cc[nH]n3)C[C@H]2c2cc(F)cc(F)c2)c1C [Example 218, 1-((3S,4R)-4-(3,5-difluorophenyvl)-1-(1H-pyrazol-3-yl)pyrrolidin-3-yl)-3-(3-ethoxy-4-methyl-1-phenyl-1H-pyrazol-5-yl)urea]
< 100 nM | CCOc1nn(-c2ccccc2)c(NC(=O)N[C@@H]2CN(c3c[nH]nc3C)C[C@H]2c2ccc(F)c(F)c2)c1C [Example 219, 1-((3S,4R)-4-(3,4-difluorophenyl)-1-(3-methyl-1H-pyrazol-4-yl)pyrrolidin-3-yl)-3-(3-ethoxy-4-methyl-1-phenyl-1H-pyrazol-5-yl)urea]
100 to 1000 nM | CCOc1nn(-c2ccccc2)c(NC(=O)N[C@@H]2CN(c3c[nH]nc3C(F)(F)F)C[C@H]2c2ccc(F)c(F)c2)c1C [Example 220, 1-((3S,4R)-4-(3,4-difluorophenyl)-1-(3-(trifluoromethyl)-1H-pyrazol-4-yl)pyrrolidin-3-yl)-3-(3-ethoxy-4-methyl-1-phenyl-1H-pyrazol-5-yl)urea]
< 100 nM | Cc1c(OC[C@H](C)O)nn(-c2ccccc2)c1NC(=O)N[C@@H]1CN(c2cn[nH]c2)C[C@H]1c1ccc(F)c(F)c1 [Example 221, 1-((3S,4R)-4-(3,4-difluorophenyl)-1-(1H-pyrazol-4-yl)pyrrolidin-3-yl)-3-(3-((S)-2-hydroxypropoxy)-4-methyl-1-phenyl-1H-pyrazol-5-yl)urea]
< 100 nM | Cc1c(OC[C@H](O)CO)nn(-c2ccccc2)c1NC(=O)N[C@@H]1CN(c2cn[nH]c2)C[C@H]1c1ccc(F)c(F)c1 [Example 222, 1-((3S,4R)-4-(3,4-difluorophenyl)-1-(1H-pyrazol-4-yl)pyrrolidin-3-yl)-3-(3-((R)-2,3-dihydroxypropoxy)-4-methyl-1-phenyl-1H-pyrazol-5-yl)urea]
< 100 nM | Cc1nn(-c2ccccc2)c(NC(=O)N[C@@H]2CN(c3cn[nH]c3)C[C@H]2c2cc(F)cc(F)c2)c1C [Example 223, 1-((3S,4R)-4-(3,5-difluoro-phenyl)-1-(1H-pyrazol-4-yl)pyrrolidin-3-yl)-3-(3,4-dimethyl-1-phenyl-1H-pyrazol-5-yl)urea]
< 100 nM | Cc1nn(-c2ccccc2)c(NC(=O)N[C@@H]2CN(c3cn[nH]c3)C[C@H]2c2ccc(F)c(F)c2)c1C [Example 224, 1-((3S,4R)-4-(3,4-difluorophenyl)-1-(1H-pyrazol-4-yl)pyrrolidin-3-yl)-3-(3,4-dimethyl-1-phenyl-1H-pyrazol-5-yl)urea]
< 100 nM | COCCCc1nn(-c2ccccc2)c(NC(=O)N[C@@H]2CN(c3cn[nH]c3)C[C@H]2c2ccc(F)c(F)c2)c1C [Example 225, 1-((3S,4R)-4-(3,4-difluorophenyl)-1-(1H-pyrazol-4-yl)pyrrolidin-3-yl)-3-(3-(3-methoxypropyl)-4-methyl-1-phenyl-1H-pyrazol-5-yl)urea]
< 100 nM | COCCOc1nn(-c2ccccc2)c(NC(=O)N[C@@H]2CN(c3cn[nH]c3)C[C@H]2c2ccc(F)c(F)c2)c1C [Example 226, 1-((3S,4R)-4-(3,4-difluorophenyl)-1-(1H-pyrazol-4-yl)pyrrolidin-3-yl)-3-(3-(2-methoxyethoxy)-4-methyl-1-phenyl-1H-pyrazol-5-yl)urea]
< 100 nM | Cc1c(OCC(C)(C)O)nn(-c2ccccc2)c1NC(=O)N[C@@H]1CN(c2cn[nH]c2)C[C@H]1c1ccc(F)c(F)c1 [Example 227, 1-((3S,4R)-4-(3,4-difluorophenyl)-1-(1H-pyrazol-4-yl)pyrrolidin-3-yl)-3-(3-(2-hydroxy-2-methylpropoxy)-4-methyl-1-phenyl-1H-pyrazol-5-yl)urea]
< 100 nM | CCOc1nn(-c2ccccc2)c(NC(=O)N[C@@H]2CN(c3ccnn3C)C[C@H]2c2ccccc2)c1C [Example 228, 1-(3-ethoxy-4-methyl-1-phenyl-1H-pyrazol-5-yl)-3-((3S,4R)-1-(1-methyl-1H-pyrazol-5-yl)-4-phenylpyrrolidin-3-yl)urea]
< 100 nM | CCOc1nn(-c2ccccc2)c(NC(=O)N[C@H]2CN(c3ccnn3C)C[C@@H]2c2ccccc2)c1C [Example 229, 1-(3-ethoxy-4-methyl-1-phenyl-1H-pyrazol-5-yl)-3-((3R,4S)-1-(1-methyl-1H-pyrazol-5-yl)-4-phenylpyrrolidin-3-yl)urea]
100 to 1000 nM | CCOc1nn(-c2ccccc2)c(NC(=O)N[C@@H]2CN(c3ccnn3C)C[C@H]2c2cc(F)cc(F)c2)c1C [Example 230, 1-((3S,4R)-4-(3,5-difluorophenyl)-1-(1-methyl-1H-pyrazol-5-yl)pyrrolidin-3-yl)-3-(3-ethoxy-4-methyl-1-phenyl-1H-pyrazol-5-yl)urea]
< 100 nM | CCOc1nn(-c2ccccc2)c(NC(=O)N[C@H]2CN(c3ccnn3C)C[C@@H]2c2cc(F)cc(F)c2)c1C [Example 231, 1-((3R,4S)-4-(3,5-difluorophenyl)-1-(1-methyl-1H-pyrazol-5-yl)pyrrolidin-3-yl)-3-(3-ethoxy-4-methyl-1-phenyl-1H-pyrazol-5-yl)urea]
100 to 1000 nM | CCOc1nn(-c2ccccc2)c(NC(=O)N[C@@H]2CN(c3ccccc3)C[C@H]2c2ccc(F)c(F)c2)c1C [Example 232, 1-((3S,4R)-4-(3,4-difluorophenyl)-1-phenylpyrrolidin-3-yl)-3-(3-ethoxy-4-methyl-1-phenyl-1H-pyrazol-5-yl)urea]
100 to 1000 nM | CCOc1nn(-c2ccccc2)c(NC(=O)N[C@@H]2CN(c3ccccc3OC)C[C@H]2c2ccc(F)c(F)c2)c1C [Example 233, 1-((3S,4R)-4-(3,4-difluorophenyl)-1-(2-methoxyphenyl)pyrrolidin-3-yl)-3-(3-ethoxy-4-methyl-1-phenyl-1H-pyrazol-5-yl)urea]
100 to 1000 nM | CCOc1nn(-c2ccccc2)c(NC(=O)N[C@@H]2CN(c3ccccc3F)C[C@H]2c2ccccc2)c1C [Example 234, 1-(3-ethoxy-4-methyl-1-phenyl-1H-pyrazol-5-yl)-3-((3S,4R)-1-(2-fluorophenyl)-4-phenylpyrrolidin-3-yl)urea]
100 to 1000 nM | CCOc1nn(-c2ccccc2)c(NC(=O)N[C@@H]2CN(c3ccc(F)cc3)C[C@H]2c2ccccc2)c1C [Example 235, 1-(3-ethoxy-4-methyl-1-phenyl-1H-pyrazol-5-yl)-3-((3S,4R)-1-(4-fluorophenyl)-4-phenylpyrrolidin-3-yl)urea]
100 to 1000 nM | CCOc1nn(-c2ccccc2)c(NC(=O)N[C@@H]2CN(c3ccccc3C)C[C@H]2c2ccccc2)c1C [Example 236, 1-(3-ethoxy-4-methyl-1-phenyl-1H-pyrazol-5-yl)-3-((3S,4R)-1-(2-methylphenyl)-4-phenylpyrrolidin-3-yl)urea]
100 to 1000 nM | CCOc1nn(-c2ccccc2)c(NC(=O)N[C@@H]2CN(c3ccccc3OC)C[C@H]2c2ccccc2)c1C [Example 237, 1-(3-ethoxy-4-methyl-1-phenyl-1H-pyrazol-5-yl)-3-((3S,4R)-1-(2-methoxyphenyl)-4-phenylpyrrolidin-3-yl)urea]
100 to 1000 nM | CCOc1nn(-c2ccccc2)c(NC(=O)N[C@@H]2CN(c3ccccc3Cl)C[C@H]2c2ccccc2)c1C [Example 238, 1-(3-ethoxy-4-methyl-1-phenyl-1H-pyrazol-5-yl)-3-((3S,4R)-1-(2-chlorophenyl)-4-phenylpyrrolidin-3-yl)urea]
100 to 1000 nM | CCOc1nn(-c2ccccc2)c(NC(=O)N[C@@H]2CN(c3ccccc3OC(F)(F)F)C[C@H]2c2ccccc2)c1C [Example 239, 1-(3-ethoxy-4-methyl-1-phenyl-1H-pyrazol-5-yl)-3-((3S,4R)-4-phenyl-1-(2-(trifluoromethoxy)phenyl)pyrrolidin-3-yl)urea]
100 to 1000 nM | CCOc1nn(-c2ccccc2)c(NC(=O)N[C@@H]2CN(c3c(F)cccc3F)C[C@H]2c2ccccc2)c1C [Example 240, 1-((3S,4R)-1-(2,6-difluorophenyl)-4-phenylpyrrolidin-3-yl)-3-(3-ethoxy-4-methyl-1-phenyl-1H-pyrazol-5-yl)urea]
100 to 1000 nM | CCOc1nn(-c2ccccc2)c(NC(=O)N[C@@H]2CN(c3ccnc(OC)c3)C[C@H]2c2ccccc2)c1C [Example 241, 1-(3-ethoxy-4-methyl-1-phenyl-1H-pyrazol-5-yl)-3-((3S,4R)-1-(2-methoxypyridin-4-yl)-4-phenylpyrrolidin-3-yl)urea]
< 100 nM | CCOc1nn(-c2ccccc2)c(NC(=O)N[C@@H]2CN(c3cccnc3OC)C[C@H]2c2ccccc2)c1C [Example 242, 1-(3-ethoxy-4-methyl-1-phenyl-1H-pyrazol-5-yl)-3-((3S,4R)-1-(2-methoxypyridin-3-yl)-4-phenylpyrrolidin-3-yl)urea]
< 100 nM | CCOc1ncccc1N1C[C@@H](NC(=O)Nc2c(C)c(OCC)nn2-c2ccccc2)[C@H](c2ccccc2)C1 [Example 243, 1-(3-ethoxy-4-methyl-1-phenyl-1H-pyrazol-5-yl)-3-((3S,4R)-1-(2-ethoxypyridin-3-yl)-4-phenylpyrrolidin-3-yl)urea]
100 to 1000 nM | COc1ncccc1N1C[C@@H](NC(=O)Nc2c(C)c(-c3ccccc3)nn2-c2ccccc2)[C@H](c2ccccc2)C1 [Example 245, 1-((3S,4R)-1-(2-methoxypyridin-3-yl)-4-phenylpyrrolidin-3-yl)-3-(4-methyl-1,3-diphenyl-1H-pyrazol-5-yl)urea]
< 100 nM | COc1ncccc1N1C[C@@H](NC(=O)Nc2c(Br)c(-c3cnn(C)c3)nn2-c2ccccc2)[C@H](c2ccccc2)C1 [Example 246, 1-(4-bromo-1′-methyl-1-phenyl-1H,1′H-[3,4′-bipyrazol]-5-yl)-3-((3S,4R)-1-(2-methoxypyridin-3-yl)-4-phenylpyrrolidin-3-yl)urea]
